Laboratory results as given in patent US12070505B2, “Targeted peptide-drug conjugates” (priority 2021, dated 2024).
Read-outs that look alike come from different tables or passages of the source.

Assays:
CCRF-CEM cells = assay: Cytotoxicity, MTS cell viability assay, CCRF-CEM
Method: (§4) In Vitro Cytotoxicity Assay of Peptide-Drug Conjugates. […] In brief, CCRF-CEM cells were seeded at 50,000 cells in 0.1 mL per well in 98-well plates. In the case of other cell lines, the cells were seeded at 5,000 cells (0.1 mL per well in 96-well plates). […] Dox (5 μM) was used as a positive control, while water and cell culture medium were used as negative controls. The compounds were dissolved in water; water was used as a negative control to normalize the data. After the incubation period, MTS reagent (20 μL) was added to each well. The incubation was continued for 2 h. Cell viability was then determined by determination of the fluorescence intensity at 490 nm using a SpectraMax M2 microplate spectrophotometer. The percentage of cell viability was then calculated using the following equation: [(OD value of cells treated with the compound)−(OD value of culture medium)]/[(OD value of control cells)−(OD value of culture medium)]×100% (FIGS. 6-9).

[1] = system: gastric adenocarcinoma cells (AGS); assay: Cytotoxicity, MTS cell viability assay, AGS
Method: as §4

[2] = system: uterine sarcoma cells (MES-SA/MX2)
Method: as §4

SK-OV-3 cells = assay: Cytotoxicity, MTS cell viability assay, SK-OV-3 (Example 1)
Method: as §4

H9C2 cells = assay: Cytotoxicity, MTS assay, normal heart muscle cells (Example 1)
Method: (§5) In Vitro Cytotoxicity Assay of Peptide-Drug Conjugates. The cytotoxicity of the compounds was determined by using human leukemia cell line (CCRF-CEM), human ovarian adenocarcinoma cells (SKOV-3) cells, kidney cell line (LLC-PK1), gastric adenocarcinoma cells (AGS), and heart/myocardium cells (H9C2) to evaluate the toxicity of the generated peptides according to a previously reported procedure (Rahman, A.; et al. Proc. Am. Assoc. Cancer Res. 26:2295-2299, 1985, which is incorporated herein by reference). In brief, CCRF-CEM cells were seeded at 50,000 cells in 0.1 mL per well in 98-well plates. In the case of other cell lines, the cells were seeded at 5,000 cells (0.1 mL per well in 96-well plates). The cells were seeded in medium (RPMI-1640 containing FBS (10%)), 24 h prior to the experiment. The compounds at different concentrations (10-50 μM) were added to each well in triplicate and incubated for 24 and 72 h at 37° C. in a humidified atmosphere of 5% CO2. Dox (5 μM) was used as a positive control, while water and cell culture medium were used as negative controls. The compounds were dissolved in water; water was used as a negative control to normalize the data. After the incubation period, MTS reagent (20 μL) was added to each well. The incubation was continued for 2 h. Cell viability was then determined by determination of the fluorescence intensity at 490 nm using a SpectraMax M2 microplate spectrophotometer.

[3] = as above; details: rat, H9C2 heart/myocardium cells
Method: as §5

[4] = Stability of [R5K]W7A-Dox in fetal bovine serum (HPLC); format: in vitro ADME; details: 10% FBS, 37° C.
Method: Stability Studies. The stability of [R5K]W7A-Dox conjugate was evaluated using phosphate-buffered saline (PBS) and fetal bovine serum (FBS). FBS was purchased from Invitrogen and ATCC. FBS (20%) was incubated with [R5K]W7A-Dox (75 μL, 1 mM in water) at 37° C. followed by intermediate mixing. An aliquot of 75 μL of the mixture was taken out at different time intervals (5 min to 24 h) and diluted with water (75 μL). The mixture was analyzed by using analytical HPLC, detecting the wavelength of 490 nm. The area under the curve (AUC) was calculated and used to determine the percentage of released Dox and the remaining prodrug at a given time.

MDA-231WT cells = assay: LC50 by CCK-8 assay, wild-type cells; format: cell-based; details: MDA-231WT (wild type), FIG. 10: after 72 h
Method: (§1) Dox-resistant Cell Lines. Acquired resistance to Dox was induced in wild-type triple-negative breast cancer cell line MDA-MB-231 (MDA-231WT) as described before (Aliabadi, H. M.; et al. J. Control. Release 172:219-228, 2013, which is incorporated herein by reference). Briefly, MDA-231WT cells were exposed to Dox at an initial concentration of 0.05 μg/mL for one week or three consecutive expansions (whichever came later). […] Resistance induction was confirmed via calculation of LC50 following a sigmoidal effect model explained elsewhere (Bousoik, E.; et al. Front. Oncol. 9:1070, 2019, which is incorporated herein by reference) and determination of P-glycoprotein (P-gp) expression.
(§2) The cytotoxicity of the peptide-Dox conjugate in resistant triple-negative breast cancer and uterine sarcoma cell lines (MDA-231R, MDA-231WT, and MES-SA/MX2) was evaluated by a Cell Counting 8 (CCK8) KIT. The peptide-Dox conjugate was added to the cells in triplicate with different concentrations (0-40 μM). Cells were incubated at 37° C. and 5% CO2 for 24 h. After this incubation period, 10 μL of CCK8 reagent was added to each well, and plates were incubated at the same conditions for 2 h. The absorbance of each well was determined at 450 nm using the SpectraMAX M5 microplate reader. After subtracting the signal from blank wells that contain medium without cells in the plate with CCK-8 solution added, the results were normalized to cells treated with normal saline (considered as 100%)
(§3) Efficiency in Dox-Resistant Cells. In order to compare the cytotoxic effect of free and peptide-conjugated Dox in Dox-resistant cells, MDA-231WT (as a Dox-sensitive cell line as control) and MDA-231R and MES-SA/MX2 cells as Dox-resistant cells were exposed to a wide range of Dox (or Dox-equivalent for the peptide-conjugated drug) concentrations (0.05-40 μM). Cells were seeded in 96-well plates with approximately 50% confluency and were incubated for 24 h in 37° C. and 5% CO2. […] The cell viability was determined after this incubation period using the CCK-8 assay, as explained above. […]

MES-SA/MX2 cells = assay: LC50 by CCK-8 assay, Dox-resistant MES-SA/MX2; format: cell-based; details: FIG. 10: after 72 h
Method: as §1
as §2, with “Cells were incubated at 37° C. and 5% CO2 for 24 h.” left out, “After subtracting the signal from blank wells that contain medium without cells in the plate with CCK-8 solution added, the results were normalized to cells treated with normal saline (considered as 100%)” left out
Efficiency in Dox-Resistant Cells. […] The cell viability was determined after this incubation period using the CCK-8 assay, as explained above. […]

LLC-PK1 kidney cells = assay: Cytotoxicity, MTS assay, normal kidney cells
Method: as §5

[5] = Cytotoxicity, MTS assay, normal kidney cells; details: pig, LLC-PK1 kidney cells
Method: as §5

MDA-231R cells = assay: LC50 by CCK-8 assay, Dox-resistant MDA-231R; format: cell-based; details: MDA-231R (Dox-resistant); FIG. 10: after 72 h
Method: as §1, §2, §3

COc1cccc2c1C(=O)c1c(O)c3c(c(O)c1C2=O)C[C@@](O)(C(=O)COC(=O)CCCC(=O)NCCC(=O)N[C@@H](Cc1c[nH]c2ccccc12)C(=O)N[C@@H](Cc1c[nH]c2ccccc12)C(=O)N[C@@H](Cc1c[nH]c2ccccc12)C(=O)N[C@@H](Cc1c[nH]c2ccccc12)C(=O)N[C@@H](Cc1c[nH]c2ccccc12)C(=O)N[C@@H](Cc1c[nH]c2ccccc12)C(=O)N[C@@H](Cc1c[nH]c2ccccc12)C(=O)NCCCC[C@@H]1NC(=O)[C@H](CCCNC(=N)N)NC(=O)[C@H](CCCNC(=N)N)NC(=O)[C@H](CCCNC(=N)N)NC(=O)[C@H](CCCNC(=N)N)NC(=O)[C@H](CCCNC(=N)N)NC1=O)C[C@@H]3O[C@H]1C[C@H](N)[C@H](O)[C@H](C)O1 [[R5K]W7A-Dox]
Cell Viability (%) after 24 h (CCRF-CEM cells; 5 μM): 74 ± 0% | Cell Viability (%) after 72 h (CCRF-CEM cells; 5 μM): 16 ± 6% | reduction of cell survival/viability (CCRF-CEM cells; 5 μM, 72 h): 84% | Cell Viability (%) after 24 h (CCRF-CEM cells; 10 μM): 68 ± 0% | Cell Viability (%) after 72 h (CCRF-CEM cells; 10 μM): 13 ± 3% | Cell Viability (%) after 24 h (CCRF-CEM cells; 25 μM): 36 ± 0% | Cell Viability (%) after 72 h (CCRF-CEM cells; 25 μM): 15 ± 1% | reduction of cell viability (CCRF-CEM cells; 25 μM, 24 h): 64% | cytotoxicity (CCRF-CEM cells; at 5, 10, and 25 μM, 72 h): 84-87% | Cell Viability (%) after 24 h ([1]; 5 μM): 95 ± 0% | Cell Viability (%) after 72 h ([1]; 5 μM): 27 ± 6% | reduction of cell survival/viability ([1]; 5 μM, 72 h): 73% | Cell Viability (%) after 24 h ([1]; 10 μM): 104 ± 5% | Cell Viability (%) after 72 h ([1]; 10 μM): 13 ± 3% | Cell Viability (%) after 24 h ([1]; 25 μM): 71 ± 0% | Cell Viability (%) after 72 h ([1]; 25 μM): 10 ± 1% | Cell Viability (%) after 24 h ([1]; 50 μM): 32 ± 1% | Cell Viability (%) after 72 h ([1]; 50 μM): 11 ± 1% | cytotoxicity ([1]; 5 and 10 μM, 24 h): not significantly cytotoxic | reduction of cell viability ([1]; different concentrations, 72 h): 73-90% | Cell Viability (%) after 72 h ([2]; 5 μM, listed as [R5K]W7-Dox): 97 ± 2% | Cell Viability (%) after 72 h ([2]; 5 μM, listed as [R5K]W7Dox): 113 ± 1% | Cell Viability (%) after 72 h ([2]; 10 μM): 89 ± 2% | Cell Viability (%) after 72 h ([2]; 25 μM): 23 ± 4% | reduction of cell viability ([2]; 25 μM, 72 h): ~80% | cytotoxicity ([2]; 5 and 10 μM, 72 h): 0-10% | Cell Viability (%) after 24 h (SK-OV-3 cells; 5 μM): 87 ± 6% | Cell Viability (%) after 72 h (SK-OV-3 cells; 5 μM): 71 ± 3% | reduction of cell survival/viability (SK-OV-3 cells; 5 μM, 24 h): 19% | reduction of cell survival/viability (SK-OV-3 cells; 5 μM, 72 h): 29% | Cell Viability (%) after 24 h (SK-OV-3 cells; 10 μM): 87 ± 0% | Cell Viability (%) after 72 h (SK-OV-3 cells; 10 μM): 61 ± 6% | reduction of cell viability (SK-OV-3 cells; 10 μM, 72 h): 39% | Cell Viability (%) after 24 h (SK-OV-3 cells; 25 μM): 76 ± 1% | Cell Viability (%) after 72 h (SK-OV-3 cells; 25 μM): 52 ± 3% | reduction of cell viability / cytotoxicity (SK-OV-3 cells; 25 μM, 72 h): 48% | cytotoxicity to heart cells (H9C2 cells; H9C2, 5-10 μM): < 9% | toxicity (H9C2 cells; H9C2, 5-10 μM, 24 h, 72 h, and 96 h): did not show any significant toxicity | Cell Viability (%) after 24 h (H9C2 cells; normal heart H9C2, 5 μM): 100 ± 2% | Cell Viability (%) after 24 h (H9C2 cells; normal heart H9C2, 10 μM): 101 ± 0% | Cell Viability (%) after 72 h (H9C2 cells; normal heart H9C2, 10 μM): 105 ± 3% | viability at 24 h, 5 µM [3]: 100 ± 2% | viability at 24 h, 10 µM [3]: 101% | viability at 24 h, 25 µM [3]: 68% | viability at 72 h, 10 µM [3]: 105 ± 3% | viability at 72 h, 25 µM [3]: 37 ± 1% | viability at 96 h, 5 µM [3]: 115 ± 1% | viability at 96 h, 10 µM [3]: 91% | viability at 96 h, 25 µM [3]: 39% | Dox released ([4]; after 4 h): 55% | remaining at 24 h ([4]; bovine, 10% fetal bovine serum, after 24 h, read-out: peptide-Dox conjugate remained intact): 25% | CC50 (MDA-231WT cells): 0.56 µM | CC50 (MDA-231WT cells; listed as Conjugated Dox): 0.66 µM | CC50 (MES-SA/MX2 cells): 4.3 µM | cytotoxicity to normal kidney cells (LLC-PK1 kidney cells; LLC-PK1, 5-10 μM): 5-7% | cytotoxicity (LLC-PK1 kidney cells; LLC-PK1, as high as 10 μM, 24 h and 72 h): not cytotoxic | Cell Viability (%) after 24 h (LLC-PK1 kidney cells; normal kidney LLC-PK1, 5 μM): 88 ± 0% | Cell Viability (%) after 72 h (LLC-PK1 kidney cells; normal kidney LLC-PK1, 5 μM): 93 ± 6% | Cell Viability (%) after 72 h (LLC-PK1 kidney cells; normal kidney LLC-PK1, 10 μM): 95 ± 3% | viability at 24 h, 5 µM [5]: 88% | viability at 24 h, 25 µM [5]: 42% | viability at 24 h, 50 µM [5]: 33 ± 1% | viability at 72 h, 5 µM [5]: 93 ± 6% | viability at 72 h, 10 µM [5]: 95 ± 3% | viability at 72 h, 25 µM [5]: 94 ± 1% | viability at 72 h, 50 µM [5]: 33 ± 1% | CC50 (MDA-231R cells): 2.3 µM
